Read-outs that look alike come from different tables or passages of the source. A value given as a limit tells only on which side of the number the result lay.

Test [1] deals with T cells. The experiment in a line: IL15 expression on T cells in vivo on day 25 (IL15Ra-Fc staining, flow cytometry). Also noted: species or system NSG mice. As to conditions: day 25, treated with ACZ 200 mg/kg daily PO. On the procedure: Human primary T cells capable of expressing constitutive mbIL15 or ACZ-regulated mbIL15 were prepared in accordance with methods described in Example 1 above. After T cell transduction and expansion, CD3/CD28 beads were removed using magnets, cells were washed twice, resuspended in fresh media and counted. T cells were mixed with expanded NK cells and each animal received 5×10^6 T cells and 2×10^6 expanded NK cells. Cells were infused by intravenous injections into NSG mice. Animals infused with T cells expressing regulated constructs were dosed daily with 200 mg/kg ACZ or vehicle by PO injections. Every 3-4 days, 50 μL blood was analyzed by flow cytometry for presence of T cells and NK cells using antibodies against mouse and human CD45, CD3 and CD56. IL15 expression on day 25 was analyzed using IL15Ra-Fc and fluorochrome conjugated anti-human IgG antibody.
IL15 expression on T cells in vivo on day 25 was analyzed by flow cytometry (FIG. 5C). T cells transduced with constitutive constructs IL15-292 and IL15-294 expressed high levels of IL15 (82% and 61%). IL15 expression was <1.5% in vehicle-treated IL15-293 and IL15-295 as well as EV groups. IL15 expression levels were 11% and 9% on T cells transduced with IL15-293 and IL15-295 in groups treated with ACZ.
(A flow cytometer gives signals particle by particle.)

Test [2] concerns TIL-matched patient-derived xenografts (hPDX). The test is described as follows: Human PDX (hPDX) model with engineered matched TIL. The class given is in vivo, NSG mice.
Description: To evaluate the effect of regulated mbIL15 on the anti-tumor activity of tumor infiltrating lymphocytes (TIL), a human PDX (hPDX) model is used. […] TIL are transduced with BaEV-pseudotyped lentiviral vectors containing either the IL15-292 construct or the IL15-293 construct, as described in Example 6, or with BaEV-pseudotyped lentiviral empty vector (EV), and then optionally frozen. TIL-matched patient-derived xenografts (hPDX) from the tumor sample are established via subcutaneous implant into the right flank of NSG mice. Tumor growth is measured once or twice per week using calipers. On study start, tumors are measured, and mice are randomized and placed in cohorts based on similar mean tumor volume across all groups into new cages (N=8 for each group). […]
Group 1 receives untransduced TIL supplemented with recombinant human IL2 (hIL2) as benchmark control, and group 2 receives TIL transduced with constitutive mbIL15 (IL15-292). […] Blood (50 μL) was withdrawn from submandibular veins on pre-determined days. Red blood cells are lysed, stained with fluorochrome-conjugated antibodies against human CD45, CD3 and mouse CD45, and cells are analyzed by flow cytometry. Tumor growth is measured for up to approximately 90 days; endpoints include maximal caliper measurements as well as effects on animal health, such as tumor necrosis and decrease in body weight.
Test [3] has as its system Human primary T cells. The experiment in a line: In vitro antigen-independent expansion of T cells transduced with constitutive or ACZ-regulated mbIL15 constructs (cell numbers by flow cytometry). The class given is cell-based. As to the method:
T cells were thawed, cells were washed and counted. T cells were mixed with CD3/CD28 beads (Invitrogen cat#11141D) at 3:1 bead to T cell ratio. 5×10^5 cells/well were added to 24-well plates in 500 μL media. Cells were activated for 24 hrs. Next day, lentivirus was thawed and added to each well at different volumes. After 24 hrs, 500 μL of fresh media was added to wells, and cells were expanded by adding equal volume of fresh media every 2-3 days to keep cell density at 0.5-1×10^6/mL. Cells were analyzed by flow cytometry to confirm expression on day 5 or 6. Cells were expanded for 9-10 days.
After T cell transduction and expansion, CD3/CD28 beads were removed using magnets, cells were washed twice, resuspended in fresh media and counted. Cells were plated in 12-well plates at 1×10^6 in 2 mL. One well of untransduced cells was cultured in the presence of 2 ng/mL IL15 as a control. T cells expressing regulated constructs were cultured in the absence or presence of acetazolamide (ACZ, 30, 10, 3, 1, 0.3 μM). Cell numbers were monitored by flow cytometry every 3-4 days and cells were cultured for 10-12 days. At each time point 100 μL of cells were collected from wells and analyzed by flow cytometry. Cells were split as needed. Cell cultures were maintained in 12-well plates by taking a portion and adding media in a new plate. Volumes for each well were recorded before and after split to calculate final volume in cell number assessment. IL15 or ACZ were replenished at final concentration of the fresh media added during each split.
T cell numbers were determined by flow cytometry. Empty vector (EV) transduced cell numbers decreased to background levels between 3-5 days in the absence of IL15, and cells expanded 11-fold in the presence of 2 ng/mL exogenous IL15 (FIG. 3A). T cells expressing constitutive IL15-292 and IL15-294 expanded between 18 and 21-fold, respectively, in 10 days (FIG. 3A). In T cells expressing IL15-293, maximum expansion was 9.5-11× with 30, 10, 3 μM (FIG. 3B). At the lowest concentration tested (0.3 μM), cells expanded 3.3×. These cells survived longer (0.8×) compared to EV cells without drug treatment […]. In T cells expressing IL15-295, maximum expansion was 8.2-10× with 30, 10, 3 μM and cells expanded 4.9× at the lowest concentration (0.3 μM) tested (FIG. 3C). Without drug treatment, these cells survived (0.9×) longer compared to EV.

Test [4] deals with HL-60-luc. The test is described as follows: HL-60 animal model of acute myeloid leukemia with engineered NK cells. The test is classed as in vivo, NSG mice. As to the method: To evaluate the effect of regulated mbIL15 on the anti-tumor activity of NK cells, an HL-60 animal model of acute myeloid leukemia is used. Cord blood NK cells are transduced with BaEV-pseudotyped lentiviral vectors containing either the IL15-292 construct or the IL15-293 construct, as described in Example 9, or with BaEV-pseudotyped lentiviral empty vector (EV), and optionally frozen after transduction. HL-60 cells expressing luciferase (HL-60-luc) are injected intravenously (1×10^6/mouse) into NSG mice and tumor growth is measured once or twice per week by bioluminescence imaging measurement (total flux units in photons per second (p/s) after intraperitoneal injections of D-luciferin). On day 6, animals are randomized into new cages (N=8 for each group) when average tumor size reaches approximately 10^6 total p/s. […]
Group 1 receives NK cells engineered with EV as a negative control, and group 2 receives NK cells transduced with constitutive mbIL5 (construct IL15-292). […] Red blood cells are lysed, stained with fluorochrome-conjugated antibodies against human CD45, CD3 and mouse CD45, and cells are analyzed by flow cytometry. Tumor growth is measured up to approximately 30 days; endpoints include maximal total flux units (10^10) as well as effects on animal health such as hind-limb paralysis and decrease in body weight.

Test [5] deals with T cells. The test is described as follows: Acetazolamide dose response of IL15 expression on transduced T cells (flow cytometry). As to conditions: ACZ 24 hrs starting at 100 μM, diluted 3-fold for 9 points. The class given is cell-based, human. As to the method:
Cells were treated with different concentrations of ACZ (ligand) starting at 100 μM for 24 hrs. Graphs show % IL15+ T Cells (FIG. 4A) and mean fluorescence intensity (MFI) of IL15 (FIG. 4B).
The effect of different concentrations of ACZ on IL15 expression was tested. T cells were treated with ACZ for 24 hrs starting at 100 μM, diluted 3-fold for 9 points. Both % IL15+ T Cells (FIG. 4A) and IL15 Mean Fluorescence Intensity (MFI) (FIG. 4B) analysis indicated similar dose curves for OT-IL15-293 and OT-IL15-295. There was 4-5-fold increase in expression (both % IL15+ T cells and IL15 MFI) between highest and lowest concentrations of ACZ.

Test [6] deals with cord blood-derived NK cells. The experiment in a line: Regulation of mbIL15 construct with ACZ in cord blood-derived NK cells (IL15Ra-Fc and anti-CD56 FACS). The test is classed as cell-based, human. The settings on record: DMSO overnight, regardless of donor. As to the method: One day prior to NK cell isolation as described in Example 8, feeder cells (K562 cells expressing 4-1BBL and mblL-21) were thawed in complete NK cell media (RPMI with Glutamax (ThermoFisher), 10% heat-inactivated fetal bovine serum (Gibco), 1× Penicillin/Streptomycin, 1 mM Sodium Pyruvate, 1×HEPES, 50 μM 2-Mercaptoethanol). On the day of NK cell isolation, 10×10^6 feeder cells were treated with mitomycin C to inhibit their proliferation and washed to remove excess drug. NK cells were added to the feeder cells at a 1:2 effector to target ratio in NK cell media with 200 U/mL recombinant human IL2 (rhIL2; PeproTech). NK cell cultures were expanded by replenishing cell cultures with NK cell media and rhIL2 every two days, and analyzed by FACS for NK cell expansion.
96-well non-coated tissue culture plates were incubated with 35 μg per mL RetroNectin (Takara Bio) in PBS for 2 h at 37° C. or overnight at 4° C. RetroNectin was removed and the plates washed with PBS. […]
NK cells from three different donors were isolated, expanded and transduced with BaEV-pseudotyped lentivirus containing either the IL15-292 construct or the IL15-293 construct. The titer of the IL15-292 lentivirus was 2.38×10^8 TU/mL while the titer for the IL15-293 lentivirus was 6.51×10^8 TU/mL (as measured by a Jurkat qPCR titer), and 4 μL lentivirus and 46 μL NK cell media were added to each well. […]

Test [7] concerns TIL. The experiment in a line: Expression of regulated mbIL15 in TIL in response to ACZ (anti-IL15 and IL15Ra-Fc co-staining). The class given is cell-based, human. As to the method: HEK293T cells were seeded on collagen coated tissue culture plates until 70% confluent. Cells were transfected with pELNS transfer vector carrying constitutive (IL15-292) or regulated (IL15-293) IL15 constructs, as well as packaging plasmids (pRSV.REV, pMDLg/pRRE and OT-BaEVg-002 (SEQ ID NO: 51)) using Lipofectamine 3000 transfection reagent in Opti-MEM media. Media was replaced 6-8 hrs post-transfection with serum-free media. Supernatants containing virus were harvested 24 hr post-transfection, fresh media was added, and supernatants were harvested again at 48 hr post-transfection. Viral supernatants were filtered to remove debris and concentrated by low speed ultracentrifugation. Virus were resuspended, aliquoted and stored at −80 C freezer.
96-well non-coated tissue culture plates were incubated with 35 μg per mL RetroNectin (Takara Bio) in PBS for 2 h at 37° C. or overnight at 4° C. RetroNectin was removed and the plates washed with PBS. BaEV-pseudotyped lentivirus, prepared as described above, and TIL cell media, at a total volume of 50 μL per well, were added to each well and the plates were centrifuged at low speed for 2 hours at 32° C. TIL generated from a head and neck tumor sample prepared as described in Example 5 were engineered after 3 weeks in the pre-REP culture. TIL were activated for 24 hrs in 24-well plates with anti-CD3/CD28 beads at 3:1 bead to T cell ratio. Activated TIL were placed in virus-coated plates and centrifuged at 800 g for 2 hrs and incubated at 37° C. for 4 days in culture media. One well of cells was processed similarly without virus addition and used as negative control (“untransduced”). Cells that were transduced with the regulated mbIL15 construct were treated either with 10 μM ACZ or DMSO for 24 hrs.
mbIL15 expression was determined by flow cytometry using two staining reagents: fluorochrome-conjugated anti-IL15 antibody as well as a recombinant protein comprised of extracellular domain of IL15Ra fused to human IgG1 Fc domain (IL15Ra-Fc). mbIL15+ cell frequency was determined based on co-staining with anti-IL15 and IL15Ra-Fc (identified as the IL15+IL15Ra-Fc+ double positive population).

Take “IL15-293: ACZ-regulated mbIL15 construct, mbIL15 linked to CA2 (M1del, L156H) DRD (AA SEQ ID NO: 24)”: the “IL15 expression on T cells” value in test [1] amounted to 11%. The tumor growth result in test [2] (group 3, TIL transduced with regulated mbIL15, 200 mg/kg ACZ daily PO) is listed as “substantially regress”; in test [2] (group 4, TIL transduced with regulated mbIL15, vehicle daily) it was “No tumor growth inhibition”; in test [4] (group 3, NK cells transduced with regulated mbIL15, 200 mg/kg ACZ daily PO), “regress substantially”. Besides, in test [3] (ACZ 0.3 μM), the “T cell expansion at the lowest concentration tested” value is given as 3.3 ×. For the same substance, the “maximum T cell expansion” value in test [3] (ACZ 30, 10, 3 μM) was 9.5-11 ×. Besides, in test [3] (no ACZ), the “T cell survival/expansion without drug treatment” value came out at 0.8 ×. Moreover, the “NK cell expansion and persistence compared to groups 1 and 4” value in test [4] (group 3, regulated mbIL15, 200 mg/kg ACZ daily PO) is “higher expansion and persistence”. Besides, the EC50 turned out to be 290 nM in test [5] (read-out: EC50 of ACZ based on % IL15+ T Cells) and 650 nM in test [5] (read-out: EC50 of ACZ based on MFI of IL15). Also, the “regulated mbIL15 expression in NK cells” value in test [6] is reported as no more than 10%. In addition, the “MFI of regulated mbIL15 in TIL” value is recorded as “high” in test [7] (10 μM ACZ 24 hrs) and “low” in test [7] (DMSO 24 hrs). Also, the “regulated mbIL15 expression in TIL” value in test [7] (10 μM ACZ 24 hrs) was 42.5%; in test [7] (DMSO 24 hrs) it was 17.1%.

On to “exogenous IL15: exogenous IL15 (2 ng/mL) added to control T cell cultures [reference compound]”, for which the T cell expansion in test [3] (Empty vector (EV) transduced cells, 2 ng/mL exogenous IL15) came out at 11 fold.

One may read the EC50 as the midpoint of the concentration-response curve.

The values are drawn from patent US11058725B2, “CA2 compositions and methods for tunable regulation” (Obsidian Therapeutics, Inc., priority 2019, dated 2021).
